Reference: patent publication US11332430B1, “Pleuromulin lauric acid ester with antibacterial activity and a method of preparing the same” (priority 2021, dated 2022)

Experiments:
MRSA-596 = experiment: paper diffusion method drug sensitivity test, MRSA-596; format: cell-based, Staphylococcus aureus; conditions: 30 μg/tablet, 37° C., 24 h, ≥17 mm sensitive, 15-16 mm intermediary, ≤14 mm drug resistance
Experimental: (§1) The antimicrobial efficacy was determined by a paper diffusion method drug sensitivity test.
(§2) Experimental strains: multi-resistant Staphylococcus aureus 171, multi-resistant Staphylococcus aureus 575, multi-resistant Staphylococcus aureus 596. The experimental strain was identified by Huashan Hospital Affiliated to Fudan University (Institute of Antibiotic of Fudan University).
(§3) Drug sensitive paper: The drug sensitive paper is a special drug sensitive paper with a diameter of 6.35 mm and a water absorption of 0.02 mL. The control was vancomycin (30 μg/tablet); the test compounds were pleuromulin (30 μg/tablet), lauric acid (30 μg/tablet) and pleuromulin lauric acid ester (30 μg/tablet).
(§4) The experimental strains were inoculated in non-selective medium and placed in air at 37° C. for 24 h. A single colony that grows well and inoculate it into broth medium was incubate at 35° C.±2° C. for 6 hours, and LA broth medium was used to calibrate the concentration of the bacterial solution to 0.5 Mie turbidimetric tube (1.5×10^8 CFU/mL). A bacterial suspension was obtained.
(§5) LB dry powder was weighed, sterilized at 103.4 Kpa, 121.3° C. high-pressure steam for 15 min, and then placed it in a 40° C.-50° C. water bath. A sterile empty plate (inner diameter 9 cm) was placed on the surface of the ultra-clean table water table, and […] was poured to the plate. The thickness of each plate was 3 mm to 4 mm. After the plate was cooled at room temperature, it was stored in the refrigerator at 2° C.-8° C. A sterile cotton swab was used to dip the bacterial solution and ti evenly coat the surface of the LB plate 3 times. After inoculation of the bacterial suspension, the LB plate was dried at room temperature for 3 min to 5 min. Sterile forceps were used to closely attach the antibacterial drug paper to the dish. The dish was put upside down and placed in a 37° C. incubator for 24 h. The results were observed by measuring the diameter. Taking 0.5% DMSO solution as a negative control, the antibacterial activity is expressed by the diameter of the inhibition zone. The inhibition zone ≥17 mm, sensitive; the inhibition zone of 15 mm-16 mm, intermediary; the inhibition zone ≤14 mm, drug resistance.

MRSA-206 = experiment: paper diffusion method drug sensitivity test, MRSA-206; format: cell-based, Staphylococcus aureus; conditions: 30 μg/tablet, 37° C., 24 h, ≥17 mm sensitive, 15-16 mm intermediary, ≤14 mm drug resistance
MRSA-575 = experiment: paper diffusion method drug sensitivity test, MRSA-575; format: cell-based, Staphylococcus aureus; conditions: 30 μg/tablet, 37° C., 24 h, ≥17 mm sensitive, 15-16 mm intermediary, ≤14 mm drug resistance
Experimental: as §1, §2, §3, §4, §5

[1] = system: multi-drug resistant Staphylococcus aureus 206, 575, 596; experiment: paper diffusion method drug sensitivity test, summary over the strains; format: cell-based; conditions: 30 μg/tablet
Experimental: as §1, §2, §3, §4, §5

[2] = listed as Pleuromutilin lauric acid derivative

Row | SMILES | Zone of inhibition (MRSA-596) | Zone of inhibition (MRSA-206) | Zone of inhibition (MRSA-575) | inhibitory effect on drug-resistant bacteria (in words) [1] | Zone of inhibition (MRSA-575; [2]) | inhibitory effect on drug-resistant bacteria (in words) [1, 2]
1 | CCCCCCCCCCCC(=O)O [Laurie acid, Lauric acid] | 0 mm | 0 mm | 0 mm | no inhibitory effect | – | –
2 | C=C[C@]1(C)C[C@@H](OC(=O)CO)[C@]2(C)[C@H](C)CC[C@]3(CCC(=O)[C@H]32)[C@@H](C)[C@@H]1O [Pleuromulin] | 0 mm | 0 mm | 0 mm | no inhibitory effect | – | –
3 | C=C[C@]1(C)C[C@@H](OC(=O)COC(=O)CCCCCCCCCCC)[C@]2(C)CC[C@@H](C)[C@@]3(CCC(=O)[C@@H]23)[C@@H](C)[C@@H]1O [Pleuromulinlauric acid ester, 2-(((3aS,4R,5S,6S,8R,9R,9aR,12R)-5-hydroxy-4,6,9,12-tetramethyl-1-oxo-6-vinyldecahydro-3a,9-propanocyclopenta[8]annulen-8-yl)oxy)-2-oxoethyl Dodecanoate] | 12 mm | 13 mm | 25 mm | excellent antibacterial activity | up to 25 mm | strong inhibitory effects
4 | CN[C@H](CC(C)C)C(=O)N[C@H]1C(=O)N[C@@H](CC(N)=O)C(=O)N[C@H]2C(=O)N[C@H]3C(=O)N[C@H](C(=O)N[C@H](C(=O)O)c4cc(O)cc(O)c4-c4cc3ccc4O)[C@H](O)c3ccc(c(Cl)c3)Oc3cc2cc(c3O[C@@H]2O[C@H](CO)[C@@H](O)[C@H](O)[C@H]2O[C@H]2C[C@](C)(N)[C@H](O)[C@H](C)O2)Oc2ccc(cc2Cl)[C@H]1O [Vancomycin] | 23 mm | 15 mm | 17 mm | – | – | –
